Source: ChEMBL document CHEMBL1201862, “PubChem BioAssay data set” (2004)
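Interpolation was linear, between the two tested concentrations surrounding the appropriate level; five concentrations were tested over 48 hours in 96-well plates. GI50: concentration for 50% inhibition of growth.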 The source made the active and inactive calls. Cut-off read from the data, not from the text of the source: active = GI50 up to about 1.1 µM and inactive = higher.

What was measured:
Assay in all cases: NCI anticancer screen, dose series, 48 h
SK-MEL-2 = test system: SK-MEL-2
MCF7 = test system: MCF7
M14 = test system: M14
UO-31 = test system: UO-31
SW-620 = test system: SW-620
LOX IMVI = test system: LOX IMVI
HCT-15 = test system: HCT-15
CAKI-1 = test system: CAKI-1
786-0 = test system: 786-0
PC-3 = test system: PC-3
MOLT-4 = test system: MOLT-4
SF-268 = test system: SF-268
MDA-N = test system: MDA-N
U-251 = test system: U-251
HL-60 = test system: HL-60
TK-10 = test system: TK-10
NCI/ADR-RES = test system: NCI/ADR-RES
HT-29 = test system: HT-29
BT-549 = test system: BT-549
SNB-78 = test system: SNB-78

| SMILES | GI50 (SK-MEL-2) | GI50 (MCF7) | GI50 (M14) | GI50 (UO-31) | GI50 (SW-620) | GI50 (LOX IMVI) | GI50 (HCT-15) [µM] | GI50 (CAKI-1) | GI50 (786-0) | GI50 (PC-3) | GI50 (MOLT-4) | GI50 (SF-268) | GI50 (MDA-N) | GI50 (U-251) | GI50 (HL-60) | GI50 (TK-10) | GI50 (NCI/ADR-RES) | GI50 (HT-29) | GI50 (BT-549) | GI50 (SNB-78) |
| --- | --- | --- | --- | --- | --- | --- | --- | --- | --- | --- | --- | --- | --- | --- | --- | --- | --- | --- | --- | --- |
| Cc1cc(S(=O)(=O)Nc2nnc3cnc4ccccc4n23)c(S)cc1Cl | 97.1 µM (inactive) | > 100 µM (inactive) | > 100 µM (inactive) | 35.2 µM (inactive) | > 100 µM (inactive) | > 100 µM (inactive) | > 100 | > 100 µM (inactive) | > 100 µM (inactive) | > 100 µM (inactive) | > 100 µM (inactive) | 98.6 µM (inactive) | > 100 µM (inactive) | > 74.1 µM (inactive) | > 100 µM (inactive) | > 100 µM (inactive) | > 100 µM (inactive) | > 100 µM (inactive) | > 88.5 µM (inactive) |  |
| O=C(c1ccccc1)c1ccc2c(c1)N=C(c1ccc(Cl)c(Cl)c1)CC(c1ccc3ccccc3c1)N2 (stereo unspecified) | > 100 µM (inactive) |  | > 100 µM (inactive) | > 100 µM (inactive) | > 100 µM (inactive) | > 100 µM (inactive) | > 100 | > 100 µM (inactive) |  |  | > 100 µM (inactive) | > 100 µM (inactive) |  | > 100 µM (inactive) | 69 µM (inactive) | > 100 µM (inactive) |  | > 100 µM (inactive) |  | > 100 µM (inactive) |
| CCN(C1=CC(=O)NC2CCCCN12)c1ccccc1 (stereo unspecified) | > 100 µM (inactive) |  | > 100 µM (inactive) | > 10 µM (inactive) | > 100 µM (inactive) | > 100 µM (inactive) | > 100 | > 100 µM (inactive) | > 100 µM (inactive) |  | > 100 µM (inactive) | > 100 µM (inactive) |  | > 100 µM (inactive) |  | > 100 µM (inactive) |  | > 100 µM (inactive) |  | > 100 µM (inactive) |
| CCOc1ccccc1NC(=O)C1=C(C)NC(C)=C(C(=O)Nc2ccccc2OCC)C1c1ccc([N+](=O)[O-])cc1 | 44.3 µM (inactive) |  | 89.5 µM (inactive) | 32.7 µM (inactive) | > 100 µM (inactive) |  | 75.3 | > 100 µM (inactive) | > 100 µM (inactive) |  |  | > 100 µM (inactive) |  | > 100 µM (inactive) | 34.7 µM (inactive) |  |  | 75.5 µM (inactive) |  | > 100 µM (inactive) |
| COc1ccc(/C=C2\CCC(C)C3C2=NN(c2ccccc2)C3c2ccc(OC)c(OC)c2)cc1OC (stereo unspecified) | 3.04 µM (inactive) | 3.21 µM (inactive) | 4.66 µM (inactive) | 6.12 µM (inactive) | 4.22 µM (inactive) | 2.49 µM (inactive) | 3.01 | 3.94 µM (inactive) | 3.48 µM (inactive) | 3.5 µM (inactive) | 2.7 µM (inactive) | 3.89 µM (inactive) | 3.94 µM (inactive) | 4.33 µM (inactive) | 1.54 µM (inactive) | 3.22 µM (inactive) | 3.18 µM (inactive) | 3.54 µM (inactive) | 3.24 µM (inactive) |  |
| C(=N\CC/N=C/c1cccc2ccccc12)/c1cccc2ccccc12 | > 100 µM (inactive) |  |  | > 100 µM (inactive) | > 100 µM (inactive) |  | > 100 | > 100 µM (inactive) | > 100 µM (inactive) |  | > 100 µM (inactive) |  |  | > 100 µM (inactive) |  | > 100 µM (inactive) |  | > 100 µM (inactive) |  | > 100 µM (inactive) |
| C[C@H](OCc1ccccc1)C(=O)N1CCS(=O)(=O)N2CCC[C@@H]2C1=O |  |  | > 100 µM (inactive) | > 100 µM (inactive) | > 100 µM (inactive) | > 100 µM (inactive) | > 100 | > 100 µM (inactive) | > 100 µM (inactive) |  | > 100 µM (inactive) | > 100 µM (inactive) |  | > 100 µM (inactive) | > 100 µM (inactive) | > 100 µM (inactive) |  | > 100 µM (inactive) |  | > 100 µM (inactive) |
| CCC(C(=O)O)c1ccc(OCc2ccccc2)cc1 (stereo unspecified) | > 100 µM (inactive) |  | > 100 µM (inactive) | 21.5 µM (inactive) | > 100 µM (inactive) | > 100 µM (inactive) |  | > 100 µM (inactive) |  |  | > 100 µM (inactive) | > 100 µM (inactive) |  | > 100 µM (inactive) | > 100 µM (inactive) | > 100 µM (inactive) |  | > 100 µM (inactive) |  | > 100 µM (inactive) |
| O=C(Nc1cccc2c1[nH]c1c(-c3ccccc3)nccc12)c1ccccc1[N+](=O)[O-] | 54.7 µM (inactive) |  | 34.1 µM (inactive) |  | 41.2 µM (inactive) | 24.5 µM (inactive) | 7.36 | 18.8 µM (inactive) |  |  | 12.9 µM (inactive) | 27.9 µM (inactive) |  | 34.2 µM (inactive) | 26.2 µM (inactive) | 33 µM (inactive) |  | 8.71 µM (inactive) |  | 30.7 µM (inactive) |
| COc1ccc(/C=N/c2ccc(-c3nc4ccccc4[nH]3)cc2)cc1OC | > 100 µM (inactive) | 25.9 µM (inactive) | > 100 µM (inactive) | > 100 µM (inactive) | > 100 µM (inactive) | > 100 µM (inactive) | > 100 | > 100 µM (inactive) | > 100 µM (inactive) | > 100 µM (inactive) | > 100 µM (inactive) | 80 µM (inactive) | > 100 µM (inactive) | 42.5 µM (inactive) | 63.7 µM (inactive) | > 100 µM (inactive) | > 100 µM (inactive) | > 100 µM (inactive) | 89.1 µM (inactive) |  |
| O=C1NC2=NOC(=O)NC2=NO1 | > 200 µM (inactive) | > 200 µM (inactive) | > 200 µM (inactive) | > 200 µM (inactive) | > 200 µM (inactive) | > 200 µM (inactive) | > 200 | > 200 µM (inactive) | > 200 µM (inactive) | > 200 µM (inactive) | > 200 µM (inactive) | > 200 µM (inactive) | > 200 µM (inactive) | > 200 µM (inactive) | > 200 µM (inactive) | > 200 µM (inactive) | > 200 µM (inactive) | > 200 µM (inactive) | > 200 µM (inactive) |  |
| CCCCNC(=O)C1C(=O)N(CCCC)C(=O)/C1=N\N (stereo unspecified) | > 100 µM (inactive) |  | > 100 µM (inactive) | > 100 µM (inactive) | > 100 µM (inactive) | > 100 µM (inactive) | > 100 | > 100 µM (inactive) | > 100 µM (inactive) |  | > 100 µM (inactive) | > 100 µM (inactive) |  | > 100 µM (inactive) |  | > 100 µM (inactive) |  | > 100 µM (inactive) |  | > 100 µM (inactive) |
| CC1=C(C#N)C23C(=O)c4ccccc4C(=O)C2=C(O)C=CC3(O)N1 (stereo unspecified) | 4.4 µM (inactive) | 0.597 µM (active) | 2.19 µM (inactive) | 2.37 µM (inactive) | 0.553 µM (active) | 0.512 µM (active) | 2.44 | 4.06 µM (inactive) | 2.2 µM (inactive) | 4.57 µM (inactive) | 0.484 µM (active) | 6.61 µM (inactive) | 1.53 µM (inactive) | 8.39 µM (inactive) | 0.313 µM (active) | 14.3 µM (inactive) | 7.83 µM (inactive) | 1.23 µM (inactive) | 1.13 µM (inactive) |  |
| Cc1ccccc1NC(=O)C1C(=O)N(c2ccccc2C)C(=O)/C1=N\NC(N)=O (stereo unspecified) | > 100 µM (inactive) |  | > 100 µM (inactive) | > 100 µM (inactive) | > 100 µM (inactive) |  | > 100 | > 100 µM (inactive) | > 100 µM (inactive) |  | > 100 µM (inactive) | > 100 µM (inactive) |  | > 100 µM (inactive) | > 100 µM (inactive) | > 100 µM (inactive) |  | > 100 µM (inactive) |  | > 100 µM (inactive) |
| O=C1C=CC(=O)c2ncccc21 | 13.6 µM (inactive) | 4.42 µM (inactive) | 3.68 µM (inactive) | 4.43 µM (inactive) | 1.93 µM (inactive) | 2.09 µM (inactive) | 2.08 | 1.8 µM (inactive) | 2.71 µM (inactive) | 9.82 µM (inactive) | 2.36 µM (inactive) | 10.9 µM (inactive) | 4.56 µM (inactive) | 3.18 µM (inactive) | 0.31 µM (active) | 6.28 µM (inactive) | 11.3 µM (inactive) | 4.57 µM (inactive) | 4.45 µM (inactive) |  |
| Cc1cccc(-c2cc(O)c3ccc(C)nc3n2)c1 | 0.421 µM (active) | 0.443 µM (active) | 0.226 µM (active) | 3.77 µM (inactive) | 0.101 µM (active) | 0.556 µM (active) | 0.194 | 0.256 µM (active) | 0.43 µM (active) | 0.261 µM (active) | 0.421 µM (active) | 0.723 µM (active) | 0.0283 µM (active) | 0.389 µM (active) | 0.0902 µM (active) | 3.3 µM (inactive) | 0.141 µM (active) | 0.198 µM (active) | 0.435 µM (active) |  |
| CO[C@H]1C[C@H](O[C@H]2CC[C@]3(C=O)[C@H]4CC[C@]5(C)[C@@H](C6=CC(=O)OC6)CC[C@]5(O)[C@@H]4CC[C@]3(O)C2)O[C@H](C)[C@H]1O [CYMARIN] | 0.397 µM (active) | 0.463 µM (active) | 0.528 µM (active) | 0.308 µM (active) | 0.243 µM (active) | 0.184 µM (active) | 0.192 | 0.102 µM (active) | 0.137 µM (active) | 0.203 µM (active) | 0.0883 µM (active) | 0.126 µM (active) | 0.136 µM (active) | 0.314 µM (active) | 0.118 µM (active) | 0.167 µM (active) | 0.257 µM (active) | 0.233 µM (active) | 0.207 µM (active) |  |
